In patent US20250171449A1, “TRYPTANTHRIN DERIVATIVES WITH THIOSEMICARBAZONE SUBSTITUTION AND USE THEREOF” (UNIVERZITA KARLOVA, priority 2022, published 2025):

Columns and labels:
[1] = Interaction of tryptanthrin derivatives with transition metal ions (UV/Vis spectroscopy); format: binding; conditions: receptor 100 μM, ion 5000 μM
Description: First, the interaction of tryptanthrin derivatives 1 and 5 with metal ions was studied using UV/Vis spectroscopy. The receptor concentration was 100 μM and the ion concentration was 5000 μM.

[2] = Binding constant with Fe^2+ ions by UV/Vis titration
Description: (§1) The association of tryptanthrin derivatives with ferrous and ferric ions was studied by UV/Vis spectroscopy in aqueous solution (water/DMSO, 99:1, v/v). […] Association constants (K) were calculated from absorbance changes (AA) in the spectral maximum of the derivative and in the spectral maximum of its complexes with Fe^2+/3+ ions by regression analysis. The concentration of tryptanthrin derivatives was 100 μM. The concentration of Fe^2+ and Fe^3+ ions fluctuated in the range of 0-5 mM. UV/Vis spectra were measured with a Shimadzu spectrophotometer in the range 220-900 nm with a step of 1 nm in a 1 cm plastic cuvette at a scanning speed of 300 nm.min^-1. The effect of different concentrations of Fe ions on the absorbance of substance 1 (PAA-TSC) is shown in FIGS. 5 and 6; that for substance 5 […]-TSC) in FIGS. 7 and 8.

[3] = target: DNA from salmon sperm; experiment: Interaction with DNA by UV/Vis titration; format: binding
[4] = target: RNA; experiment: Interaction with RNA by UV/Vis titration; format: binding
[5] = system: SARS-COV-2; experiment: Antiviral effect: SARS-COV-2 RNA production in infected Vero cells (RT-qPCR of E-gene); format: cell-based; conditions: Vero in vitro model; 0-10 μM; 24 and 48 hours
Description: The cells in question (Vero cell line from African green monkey kidney; 1.5×10^5 cells per well) were infected with a SARS-COV-2 isolate provided by the Bioconservation Section of Techonin. The infectious inoculum contained 2.38×10^7 copies of the SARS-COV-2 E-gene. After 1 h inoculation, cells were supplemented with 1 ml of Dulbecco's modified Eagle's medium containing 2% fetal bovine serum (2% FBS-DMEM) and increasing concentrations (0-10 μM) of tryptanthrin derivatives 1 (PAA-TSC) and 5 (T8H-TSC), resp. After 24 and 48 hours of incubation, the growth of SARS-COV-2 was characterized in an aliquot of the culture supernatant by one-step RT-qPCR.
Viral RNA was isolated from 200 μl culture supernatant using magnetic beads. SARS-CoV-2 RNA was quantified by amplifying the E-gene of SARS-COV-2 (Generi Biotech) using the SensiFast Probe One-Step Kit (BioLine) and Light Cycler 480 II (Roche) using absolute quantification and calibration curve.

[6] = Binding constant with Fe^3+ ions by UV/Vis titration
Description: as §1

[7] = stoichiometry (ion:ligand) 1:1, water/DMSO 99:1, derivative 100 μM
[8] = stoichiometry (NK:ligand) 1:2, phosphate buffer pH 7.00

## NC(=S)NN=C1c2ccccc2-n2c1nc1ccccc1c2=O [derivative 5]
[1]
  absorbance changes after addition of metal ions (selectivity for Fe^2+/Fe^3+): significant absorbance changes were observed only in the case of ferrous and ferric ions
[2]; [7]
  Log (K) association constant: 4.9
[2]; stoichiometry (ion:ligand) 2:1, water/DMSO 99:1, derivative 100 μM
  Log (K) association constant: 7.1
[3]; [8]
  Log (K) association constant: 6.0
[4]; [8]
  Log (K) association constant: 7.3
[5]
  inhibition of virus particle / CoV-2 RNA production: inhibition of viral particle production

## CC(CC1(O)c2ccccc2-n2c1nc1ccccc1c2=O)=NNC(N)=S (mixture of isomers) [derivative 1]
[1]
  absorbance changes after addition of metal ions (selectivity for Fe^2+/Fe^3+): significant absorbance changes were observed only in the case of ferrous and ferric ions
[2]; [7]
  Log (K) association constant: 1.5
[6]; [7]
  Log (K) association constant: 6.0
[6]; stoichiometry (ion:ligand) 1:2, water/DMSO 99:1, derivative 100 μM
  Log (K) association constant: 10.2
[3]; stoichiometry (NK:ligand) 1:1, phosphate buffer pH 7.00
  Log (K) association constant: 7.4
[4]; stoichiometry (NK:ligand) 2:1, phosphate buffer pH 7.00
  Log (K) association constant: 8.7
[5]
  inhibition of virus particle / CoV-2 RNA production: inhibition of virus particle production
